Data reported in PMC6856681, “Accumulation of Dietary S‐Methyl Cysteine Sulfoxide in Human Prostate Tissue” (Molecular Nutrition & Food Research, 2019).
Where two headings read alike, the source gives them in different places.

Experiments:
[1] = SAP study: metabolites in prostate biopsy tissue, peri-prostatic adipose tissue and urine after 4 weeks of broccoli soup supplementation vs control; assay type: in vivo, human
Description: The SAP study (Figure 2) was a two-arm, parallel un-blinded, dietary-supplementation study, delivering a short, high-dose broccoli soup supplement to a habitual diet to men in the pre-biopsy window before a trans-perineal prostate biopsy (TPB). The primary aim was to determine whether supplementation of a diet with a broccoli soup would enhance the levels of […] and other broccoli-derived metabolites in the prostate of men scheduled for prostate biopsy. Eighteen men were randomized to either continue their normal diet (non-supplementation controls) or receive three portions of a glucoraphanin-rich broccoli soup (300 g) per week for a minimum of 4 weeks manufactured from a broccoli cultivar heterozygous for a Myb28^villosa allele, as previously described.19 On the study day, samples of whole blood, urine (following a digital rectal prostatic massage), prostate, and peri-prostatic adipose tissue were collected. The protocol was approved by the Human Research Governance Committee ([…] 01/2016) at Quadram Institute Bioscience and given full ethical approval by The East of England - Cambridge East Research Ethics Committee (ref: 16/EE/0054). The trial was registered on a publicly accessible database (ClinicalTrials.gov, NCT02821728). A sample of whole blood for genotyping was obtained via the intravenous cannula inserted for use by the anesthetist, thus avoiding additional venipuncture. After prostatic massage, a first-pass urine sample was collected. TPB was performed under general or spinal anesthesia with appropriate antibiotic prophylaxis. Once anesthetized, the patient was positioned supine with their legs elevated in stirrups. A template grid was placed on the skin of the perineum and the prostate visualized by trans-rectal ultrasound scan. […] For the SAP study, eight biopsy cores of prostate tissue were taken from a region of the prostate not known or suspected to contain cancer. Five of these were snap frozen for metabolite analyses, two in RNAlater, and one in methanol. Two additional cores were taken from peri-prostatic adipose tissue and snap frozen. Snap-frozen tissue cores were individually weighed on a high-sensitivity balance and transferred to screw-top tubes. Two hundred microliters of cold Milli- Q® water and […] of autoclaved, acid-washed 710 to 1180 μm glass beads were added to each tube. […] The samples were then placed on a revolving shaker for 15 min at 4 °C. The tubes were centrifuged at 17 000 × g for 10 min at 4 °C and 50 μL of supernatant transferred to a new Eppendorf. 10 μL of 50% trichloroacetic acid (TCA) were added to each sample to precipitate proteins. The centrifugation step was repeated and 50 μL of supernatant transferred to HPLC insert vials for analysis by LC-MS/MS. […] Stock solutions of 1 mg mL^-1 sulfate (Sigma) and SMCSO (LKT laboratories Inc.) were generated by dilution of weighed powder into Milli-Q water. Serial fivefold dilutions were performed in the relevant matrix to produce 6-point calibration curves from 10 to 0 μg mL^-1 on the day of analysis. Sulfate was quantified using an Agilent 6490 triple-quad LC-MS mass spectrometer (Agilent technologies) with Thermo Scientific Hypercarb, Porous Graphitic Carbon (PGC) (3 × 50 mm, 3 μm) column. Two microliters were injected from each sample, with separation by 1% formic acid in Milli-Q water (mobile phase A) and 1% formic acid in methanol (mobile phase B). The gradient started at 8% mobile phase B, increasing to 70% over 5.5 min and returned to 8% mobile phase B for re-equilibration over the last 9.5 min. The column temperature was maintained at 60 °C and the flow rate at 0.3 mL min^-1. […] SMCSO was quantified with the Agilent system described above. […] Snap-frozen tissue cores were individually weighed on a high-sensitivity balance and transferred to screw-top tubes. Two hundred microliters of cold Milli-Q water and […] of autoclaved, acid-washed 710 to 1180 μm glass beads (Sigma) were added to each tube. […]

[2] = Effect of heating the soup to boiling (microwave or conduction) on metabolite amount; assay type: physicochemical; conditions: heating to boiling by microwave or conduction vs unheated control
Description: One portion of soup contained 280 ± 8.8 µmoles of glucoraphanin and 1513 ± 36.8 µmoles of SMCSO. The soup was provided frozen and heated up prior to consumption using a standard procedure. Heating either by microwave or conduction had no effect on SMCSO or glucoraphanin concentration (Figure 3).
Figure 3 The effect of heating soup to boiling on amount of a) glucoraphanin and b) SMCSO compared to unheated control by microwave or conduction heating. Columns are means of two independent samples.

[3] = design: method as in Sivapalan et al.19; conditions: human, ref Sivapalan et al.19, cited from earlier work
[4] = human, cited from earlier work
[5] = SMCSO in tissue cores from radical prostatectomies of men not in a dietary study; assay type: in vivo, human; conditions: two cores from each of four glands
Description: To further explore the presence of un‐metabolized SMCSO in the prostate gland of men who had not been within a dietary study, tissue samples were obtained from patients who had endoscopic extraperitoneal radical prostatectomies. Access to tissue and subsequent analyses were undertaken under ethical approval granted from the Faculty of Medicine and Health Sciences Research Ethics Committee of the University of East Anglia (FMHS 20122014–37). The prostate gland was removed from the abdominal cavity immediately after resection and rapidly biopsied after extraction to avoid ischemic artifacts using a standard core biopsy instrument, as previously described.23 The extracted whole prostatectomy specimen was placed on a surgical table, the apex and base of the gland were identified, and the prostate cut transversely (axial section) half way along the gland. With the use of the midline and the urethra as guides, biopsies were taken from the peripheral zones avoiding obvious tumor sites where feasible. Two cores were taken from each of four glands for analyses. The tissue was snap frozen and analyzed for the presence of SMCSO as described above.

[6] = Feeding of 35S-labeled SMCSO to human volunteers, recovery of label in urine (Waring et al.); assay type: in vivo
Description: Previously, there has been only a single study of the metabolism of SMCSO in humans. Waring and colleagues describe the feeding of ^35S‐labeled SMCSO to human volunteers, and the recovery of 96% of the label in urine after 14 days, of which 40% was inorganic sulfate, indicating almost complete absorption of SMCSO (and/or its colonic microbiological derivatives).18 How SMCSO was metabolized is unknown, but it is likely that it was due to initial cysteine‐S‐conjugate β lyase activity by gut microbiome, as opposed to mammalian enzyme activity.

[7] = both, human, in vivo
Description: (§1) SMCSO was quantified with the Agilent system described above. Samples were injected at 2 µL eluted at a flow rate of 0.3 mL min^–1 on an Agilent SB‐AQ 1.8 µM (100 × 21 mm) C18 column. Separation was carried out using 10 mM ammonium acetate + 0.05% hetafluorobutyric acid in Milli‐Q water (mobile phase A) and 10 mM ammonium acetate + 0.05% hetafluorobutyric acid in 90% methanol (mobile phase B). The gradient started at 2% mobile phase B, increasing over 2 min to 5% B and returning to 2% mobile phase B for re‐equilibration over the last 2 min. The column was set at 20 °C due to the instability of SMCSO at high temperatures. The LC eluent flow was sprayed into the mass spectrometer interface without splitting. SMCSO ion was monitored by MS in MRM mode (m/z = 87.9) in positive polarity with ESI. The source parameters were: gas temperature 200 °C, gas flow 16 L min^–1, sheath gas temperature 300 °C with a sheath gas flow of 11 L min^–1, a nebulizer pressure of 50 psi, and capillary voltage 3500 V. Quantification was performed by peak area against the matrix‐matched standard curve, and identification by retention time and product ions.
(§2) To quantify the amount of SMCSO in plasma and urine from a single portion of soup, samples were analyzed from a previously described acute intervention study (NCT02300324).24 In this study, ten volunteers consumed a single portion of the identical soup to that used in the SAP study as described above as part of a three‐phase cross‐over study. Briefly, men and woman aged 18–65 years with a BMI between 19.5 and 35 kg m^–2 were enrolled into a dietary intervention trial undertaken at the Human Nutrition Unit of the Quadram Institute Bioscience Subjects were recruited on the basis of fasted (≥8 h) screening blood/urine samples and a completed health questionnaire. The study involved a 48‐h pre‐intervention diet restriction, a study day involving a 9‐h stay at the HNU and a sample collection the following morning (24 h post soup consumption) followed by a washout period of 2 weeks. […]

[8] = design: method as in PMID 14768973; conditions: cited from earlier work
clinical = conditions: both, human, in vivo
Description: as §1, §2

[9] = read-out: Plasma C max; following a portion of cruciferous vegetables, transient; cited from earlier work
[10] = human prostate biopsy cores, LC–MS/MS, both study arms

Which “Detection in prostate tissue” value [1, 10] does the source give for `C[S@@+]([O-])CCCC/C(=N/OS(=O)(=O)O)S[C@@H]1O[C@H](CO)[C@@H](O)[C@H](O)[C@H]1O` [Glucoraphanin, 4‐Methylsulphinylbutyl glucosinolate] here?
Its value is “No glucoraphanin or sulforaphane (and its thiol conjugates) was detected”.

What about the “Effect of heating on concentration in the soup” value [2] of the same compound?
Its value is “no effect”.

And the “Plasma C24h” value ([3]; 24 h after single 300 mL portion of broccoli soup)?
Its value is under 10 nM.

What about the “Plasma AUC” value ([3]; single 300 mL portion of broccoli soup (280 µmoles glucoraphanin)) of the same compound?
The value was 0.15 ± 0.08 µM·h.

And the Cmax ([3]; single 300 mL portion of broccoli soup (280 µmoles glucoraphanin), read-out: Plasma Cmax)?
The Cmax was 30 ± 10 nM.

What about the “Plasma Tmax” value ([3]; single 300 mL portion of broccoli soup) of the same compound?
The value was 2.23 ± 0.09 h.

And the “Urine: percentage excreted after 24 h” value ([4]; percentage of consumed glucoraphanin excreted intact, ref Sivapalan et al.19)?
The value was 0.51 ± 0.24%.

What about the “Urine: total excreted in 24 h” value ([4]; single 300 mL portion of broccoli soup (280 µmoles glucoraphanin), ref Sivapalan et al.19) of the same compound?
The value was 1.44 ± 0.66 µmol.

And the “Conversion of glucoraphanin to sulforaphane” value ([4]; value assumed for the dose-equivalent calculation)?
Its value is 8%.

For `C[S@+]([O-])C[C@H](N)C(=O)O` [SMCSO, (+)‐S‐methyl cysteine sulfoxide], which “Detection in prostate tissue” value ([1]; in vivo) is on record?
The value was “present”.

What about the “SMCSO level in peri-prostatic adipose tissue” value ([1]; in vivo) of the same compound?
The value was “higher levels than in prostate tissue but without significant difference between the two groups”.

What about the “SMCSO level in urine, supplement group vs control” value ([1]; in vivo) of the same compound?
Its value is “higher in urine in the supplement group compared to the control”.

What about the “Detection of SMCSO in radical prostatectomy tissue samples” value [5] of the same compound?
Its value is “detected in seven of the eight tissue samples”.

And the “Proportion of SMCSO absorbed from the GI tract” value ([6]; concluding statement)?
Its value is about 100%.

And the “Proportion of consumed SMCSO that is metabolized in vivo” value ([6]; inferred from this study together with Waring et al. 18)?
Its value is “about 90%”.

What about the “Effect of heating on concentration in the soup” value [2] of the same compound?
Its value is “no effect”.

What about the “Plasma concentration of SMCSO relative to that of glucoraphanin or sulforaphane” value [7] of the same compound?
The value was “about 1000 fold”.

What about the “Share of recovered urinary label that was inorganic sulfate” value ([8]; human volunteers fed 35S-labeled SMCSO, 14 days) of the same compound?
Its value is 40%.

What about the “Recovery of 35S label in urine” value ([8]; human volunteers fed 35S-labeled SMCSO, after 14 days) of the same compound?
Its value is 96%.

And the “Proportion of SMCSO absorbed (as un-metabolized SMCSO or unknown derivatives)” value ([8]; human)?
Its value is 97%.

What about the concentration at 24 h (clinical) of the same compound?
The concentration at 24 h was 4660 ± 1520 nM.

And the Tmax (clinical; Plasma Tmax)?
Its Tmax is 1.4 h.

Which “Detection in prostate tissue” value [1, 10] does the source give for `C[S+]([O-])CCCCN=C=S` (centres unmarked) [Sulforaphane, sulforaphane] here?
The value was “No glucoraphanin or sulforaphane (and its thiol conjugates) was detected”.

What about the Sulforaphane in urine ([1]; human, participants in both arms) of the same compound?
Its Sulforaphane in urine is “detected in urine from participants in both arms of the study”.

And the Cmax [9]?
The Cmax was under 1000 nM.

With `O=S(=O)(O)O` [sulfate] as the compound, how does the “Sulfate level in prostate tissue between the two dietary arms” value ([1]; human prostate biopsy cores) read?
Its value is “no significant difference”.
